# In patent US9399051B2, “Dipeptidyl peptidase-4 inhibitor” (Kaneka Corporation, priority 2009, dated 2016):
# Test system: C57BL/6J SPF male mice
# Assay: Oral glucose tolerance test, blood sugar levels in mice
# Type: in vivo
# Conditions: mean ± standard error; for Blood sugar level, 0 minutes (pretest value): fasted mice, pretest before administration, in mg/dL (unit assumed); for Blood sugar level, 30 minutes after glucose administration / Blood sugar level, 60 minutes after glucose administration / Blood sugar level, 120 minutes after glucose administration: oral 10 mL/kg (beans 400 mg/mL, sitagliptin 0.1 mg/mL) 30 minutes before oral glucose
# Description: The enzyme-treated azuki bean, tora bean and otebo bean prepared in Example 2 and an enzyme-treated defatted soybean prepared using the same method as Example 2 were evaluated for their actual blood sugar lowering effects in the body by using an oral glucose tolerance test. C57BL/6J SPF male mice (Clea Japan, Inc.) were used at age 10 weeks for the study animals. Twenty mice were divided into four groups of 5 mice each. In a single experiment, evaluation was carried out on four groups consisting of a control group (administered distilled water), a positive control group (administered sitagliptin) and two sample groups. Two experiments were carried out and a total of four samples were evaluated.
# Blood samples were collected from the caudal veins of the mice that had been fasting since the previous evening, and blood sugar levels were measured using a simple blood glucose measuring device (GLUTEST ACE®, Sanwa Kagaku Kenkyusho Co., Ltd.) to determine pretest values (0 minutes). 100 mg tablets of sitagliptin (MERCK) were ground with a mortar and suspended in water to a concentration of 0.1 mg/mL as sitagliptin for use as a positive control. Each of the enzyme-treated beans prepared in Example 2 (or in accordance with the method thereof) was dissolved with distilled water to a concentration of 400 mg/mL for use as an administration sample. Distilled water (control group), the sitagliptin suspension (positive control group) or the enzyme-treated bean aqueous solution (sample group) was administered orally at 10 mL/kg of body weight. A 40% aqueous glucose solution was administered orally at 5 mL/kg of body weight 30 minutes after administering the distilled water, sitagliptin suspension, or sample. Blood samples were collected from the caudal veins of the mice at, 30, 60 and 120 minutes after the oral administration of glucose, followed by measurement of these blood sugar levels in the same manner as that used for measurement of pretest values.
smiles,measurement,setting,value
"N[C@@H](CC(=O)N1CCn2c(nnc2C(F)(F)F)C1)Cc1cc(F)c(F)cc1F [Sitagliptin, sitagliptin]","Blood sugar level, 0 minutes (pretest value)",Experiment 1,82.4 ± 7.0
same,"Blood sugar level, 30 minutes after glucose administration",Experiment 1,270.6 ± 24.2
same,"Blood sugar level, 60 minutes after glucose administration",Experiment 1,185.4 ± 16.2
same,"Blood sugar level, 120 minutes after glucose administration",Experiment 1,110.2 ± 12.3
same,"Blood sugar level, 0 minutes (pretest value)",Experiment 2,72.0 ± 4.7
same,"Blood sugar level, 30 minutes after glucose administration",Experiment 2,215.4 ± 8.5
same,"Blood sugar level, 60 minutes after glucose administration",Experiment 2,145.0 ± 8.9
same,"Blood sugar level, 120 minutes after glucose administration",Experiment 2,93.6 ± 8.7
